Numbered stars: 1 amine (or outer) side, 2 acyl side, 3 side chain; on linkers, the order of the positions; unused ones are H or OH. Bridge positions count the residues as written; N and C are the ends. Square brackets hold non-standard residues; d marks the D form. Peptide text beside a SMILES is read from it. Trp(βS-Me,7-OMe) = COc1cccc2c([C@H](C)[C@H](N)C(=O)O)c[nH]c12; cBu(1-CO,cis-3-CH2NH) = O=C([C@H]1C[C@@H](CN[*:1])C1)[*:2]; dPro(trans-4-NMe3+) = C[N+](C)(C)[C@@H]1CN[C@@H](C(=O)O)C1; Trp(1-CH2COOH) = N[C@@H](Cc1cn(CC(=O)O)c2ccccc12)C(=O)O; Phe(4-SO2NH2) = N[C@@H](Cc1ccc(S(N)(=O)=O)cc1)C(=O)O; Trp(7-Br) = N[C@@H](Cc1c[nH]c2c(Br)cccc12)C(=O)O; Trp(7-CN) = N#Cc1cccc2c(C[C@H](N)C(=O)O)c[nH]c12; Trp(7-Cl) = N[C@@H](Cc1c[nH]c2c(Cl)cccc12)C(=O)O; Phe(3-CONH2) = NC(=O)c1cccc(C[C@H](N)C(=O)O)c1; Phe(4-CONH2) = NC(=O)c1ccc(C[C@H](N)C(=O)O)cc1; Phe(4-COOH) = N[C@@H](Cc1ccc(C(=O)O)cc1)C(=O)O; 4Pal(3S-Me) = C[C@@H](c1ccncc1)[C@H](N)C(=O)O; Trp(7-aza) = N[C@@H](Cc1c[nH]c2ncccc12)C(=O)O; X3 = C[C@H](c1ccncc1)[C@H](N[*:1])C(=O)[*:2]; X2 = C[C@@H]1CC[C@@H](C(=O)[*:2])N([*:1])C1; dPro(4S-NH2) = N[C@@H]1CN[C@@H](C(=O)O)C1; Pip(5R-OH) = O=C(O)[C@@H]1CC[C@@H](O)CN1; X1 = O=C([C@@H]1CC[C@H](N[*:1])C1)[*:2]; N(CH2CH2COOH)Gly = O=C(O)CCNCC(=O)O; Pip(4-aza) = O=C(O)[C@@H]1CNCCN1; hPhe = N[C@@H](CCc1ccccc1)C(=O)O; 4Pal = N[C@@H](Cc1ccncc1)C(=O)O; NMeE = CN[C@@H](CCC(=O)O)C(=O)O; dHyp = O=C(O)[C@H]1C[C@H](O)CN1; Cit = NC(=O)NCCC[C@H](N)C(=O)O; Ahp(2) = CCCCC[C@H](N)C(=O)O; Pip = O=C(O)[C@@H]1CCCCN1; αMeS = C[C@](N)(CO)C(=O)O; NMeA = CN[C@@H](C)C(=O)O; Nle = CCCC[C@H](N)C(=O)O; Sar = CNCC(=O)O
What follows are compounds tested against T1, human soluble TNFR1 (sTNFR1) (Homo sapiens, UniProt P19438) (assay: Human sTNFR1-peptide displacement assay (LanthaScreen Eu TR-FRET binding assay)).
T1 construct: made in house; host or cells: Sf21 (baculovirus)
T1 sequence (P19438 with tags, fused parts or gaps): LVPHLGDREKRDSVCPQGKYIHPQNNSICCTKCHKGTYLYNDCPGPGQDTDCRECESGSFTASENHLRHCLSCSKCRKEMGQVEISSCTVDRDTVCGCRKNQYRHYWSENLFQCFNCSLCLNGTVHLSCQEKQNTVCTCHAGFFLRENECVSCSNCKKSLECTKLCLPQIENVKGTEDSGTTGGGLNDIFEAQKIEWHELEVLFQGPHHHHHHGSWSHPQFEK
Procedure, shortened: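 Readout is the 665/615 nm TR-FRET ratio (Eu anti-His donor, streptavidin-Alexa647 acceptor), normalized to DMSO and saturating displacer, fit by Morrison-based five-parameter logistic for Kd^app. His-tagged sTNFR1 (1-211) prebound to 100 nM biotinylated peptide SEQ ID NO.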

Compound | IC50 | Kd
CCCC[C@@H]1NC(=O)CSC[C@@H](C(N)=O)NC(=O)[C@H]([C@@H](C)c2c[nH]c3c(OC)cccc23)NC(=O)CN(C)C(=O)[C@H](Cc2ccc(O)cc2)NC(=O)[C@H](Cc2ccc(C(=O)O)cc2)NC(=O)[C@](C)(CO)NC(=O)[C@H](Cc2c[nH]c3c(Cl)cccc23)NC(=O)[C@H](Cc2ccncc2)NC(=O)[C@H](CC(N)=O)NC(=O)[C@H](CCC(=O)O)N(C)C(=O)[C@H](Cc2c[nH]c3ccccc23)NC(=O)[C@@H]2CC[C@@H](C)CN2C(=O)[C@H](Cc2ccncc2)NC1=O [SEQ ID NO. 272] ({CH2CO}-[Nle][4Pal][X2]W[NMeE]N[4Pal][Trp(7-Cl)][αMeS][Phe(4-COOH)]Y[Sar][Trp(βS-Me,7-OMe)]C-NH2; thioether N-14) | 0.3 nM | 0.21 nM
C[C@H]1C(=O)N[C@@H](CC(N)=O)C(=O)N[C@@H](Cc2ccncc2)C(=O)N[C@@H](Cc2c[nH]c3ccccc23)C(=O)N[C@@](C)(CO)C(=O)N[C@@H](Cc2ccc(C(=O)O)cc2)C(=O)N[C@@H](CCCNC(=N)N)C(=O)N(C)CC(=O)N[C@@H](Cc2c[nH]c3ccccc23)C(=O)N[C@H](C(N)=O)CSCC(=O)N[C@@H](CCc2ccccc2)C(=O)N[C@@H](Cc2ccc(O)cc2)C(=O)N[C@@H](CO)C(=O)N[C@@H](Cc2c[nH]c3ccccc23)C(=O)N1C [SEQ ID NO. 260] ({CH2CO}-[hPhe]YSW[NMeA]N[4Pal]W[αMeS][Phe(4-COOH)]R[Sar]WC-NH2; thioether N-14) | 10.2 nM | 
CCCCC[C@@H]1NC(=O)[C@@H]2CC[C@@H](C2)NC(=O)[C@H]([C@@H](C)c2c[nH]c3c(OC)cccc23)NC(=O)CN(C)C(=O)[C@H](Cc2cccc(C(N)=O)c2)NC(=O)[C@H](Cc2ccc(C(N)=O)cc2)NC(=O)[C@](C)(CO)NC(=O)[C@H](Cc2c[nH]c3c(Br)cccc23)NC(=O)[C@H](Cc2ccc(C(=O)O)cc2)NC(=O)[C@H](CC(N)=O)NC(=O)[C@H]2C[C@H](O)CN2C(=O)[C@H](Cc2c[nH]c3ccccc23)NC(=O)[C@@H]2CNCCN2C(=O)[C@H](Cc2ccncc2)NC1=O [SEQ ID NO. 109] (cyclo([4Pal][Pip(4-aza)]W[dHyp]N[Phe(4-COOH)][Trp(7-Br)][αMeS][Phe(4-CONH2)][Phe(3-CONH2)][Sar][Trp(βS-Me,7-OMe)][X1][Ahp(2)])) |  | 0.11 nM
CCCC[C@@H]1NC(=O)[C@H]2C[C@@H](CNC(=O)[C@H]([C@@H](C)c3c[nH]c4c(OC)cccc34)NC(=O)CN(C)C(=O)[C@H](Cc3ccc(O)cc3)NC(=O)[C@H](Cc3ccc(C(=O)O)cc3)NC(=O)[C@](C)(CO)NC(=O)[C@H](Cc3c[nH]c4c(Cl)cccc34)NC(=O)[C@H](Cc3ccncc3)NC(=O)[C@H](CC(N)=O)NC(=O)[C@H](CCC(=O)O)N(C)C(=O)[C@H](Cc3c[nH]c4ccccc34)NC(=O)[C@@H]3CNCCN3C(=O)[C@H](Cc3ccncc3)NC1=O)C2 [SEQ ID NO. 268] (cyclo([4Pal][Trp(7-Cl)][αMeS][Phe(4-COOH)]Y[Sar][Trp(βS-Me,7-OMe)][cBu(1-CO,cis-3-CH2NH)][Nle][4Pal][Pip(4-aza)]W[NMeE]N)) | 0.77 nM | 0.45 nM
CCCC[C@@H]1NC(=O)CSC[C@@H](C(N)=O)NC(=O)[C@H]([C@@H](C)c2c[nH]c3c(OC)cccc23)NC(=O)CN(C)C(=O)[C@H](Cc2ccc(O)cc2)NC(=O)[C@H](Cc2ccc(C(=O)O)cc2)NC(=O)[C@](C)(CO)NC(=O)[C@H](Cc2c[nH]c3c(Cl)cccc23)NC(=O)[C@H](Cc2ccncc2)NC(=O)[C@H](CC(N)=O)NC(=O)CN(CCC(=O)O)C(=O)[C@H](Cc2c[nH]c3ncccc23)NC(=O)[C@@H]2CCCCN2C(=O)[C@H](Cc2ccncc2)NC1=O [SEQ ID NO. 220] ({CH2CO}-[Nle][4Pal][Pip][Trp(7-aza)][N(CH2CH2COOH)Gly]N[4Pal][Trp(7-Cl)][αMeS][Phe(4-COOH)]Y[Sar][Trp(βS-Me,7-OMe)]C-NH2; thioether N-14) |  | 0.55 nM
CCCC[C@@H]1NC(=O)CSC[C@@H](C(N)=O)NC(=O)[C@H]([C@@H](C)c2c[nH]c3c(OC)cccc23)NC(=O)CN(C)C(=O)[C@H](Cc2ccc(O)cc2)NC(=O)[C@H](Cc2ccc(C(=O)O)cc2)NC(=O)[C@](C)(CO)NC(=O)[C@H](Cc2c[nH]c3c(Cl)cccc23)NC(=O)[C@H](Cc2ccncc2)NC(=O)[C@H](CC(N)=O)NC(=O)[C@H](CCC(=O)O)N(C)C(=O)[C@H](Cc2c[nH]c3ncccc23)NC(=O)[C@H](CO)NC(=O)[C@H]([C@H](C)c2ccncc2)NC1=O [SEQ ID NO. 143] ({CH2CO}-[Nle][X3]S[Trp(7-aza)][NMeE]N[4Pal][Trp(7-Cl)][αMeS][Phe(4-COOH)]Y[Sar][Trp(βS-Me,7-OMe)]C-NH2; thioether N-14) | 0.4 nM | 0.21 nM
CCCC[C@@H]1NC(=O)[C@@H]2CC[C@@H](C2)NC(=O)[C@H]([C@@H](C)c2c[nH]c3c(OC)cccc23)NC(=O)CN(C)C(=O)[C@H](Cc2ccc(O)cc2)NC(=O)[C@H](Cc2ccc(C(N)=O)cc2)NC(=O)[C@](C)(CO)NC(=O)[C@H](Cc2c[nH]c3c(Cl)cccc23)NC(=O)[C@H](Cc2ccncc2)NC(=O)[C@H](CC(N)=O)NC(=O)[C@H](CCC(=O)O)N(C)C(=O)[C@H](Cc2c[nH]c3ccccc23)NC(=O)[C@@H]2CC[C@@H](O)CN2C(=O)[C@H](Cc2ccncc2)NC1=O [SEQ ID NO. 163] (cyclo([4Pal][Trp(7-Cl)][αMeS][Phe(4-CONH2)]Y[Sar][Trp(βS-Me,7-OMe)][X1][Nle][4Pal][Pip(5R-OH)]W[NMeE]N)) |  | 0.05 nM
CCCC[C@@H]1NC(=O)[C@@H]2CC[C@@H](C2)NC(=O)[C@H]([C@@H](C)c2c[nH]c3c(OC)cccc23)NC(=O)CN(C)C(=O)[C@H](Cc2ccc(O)cc2)NC(=O)[C@H](Cc2ccc(C(=O)O)cc2)NC(=O)[C@](C)(CO)NC(=O)[C@H](Cc2c[nH]c3c(Cl)cccc23)NC(=O)[C@H](Cc2ccncc2)NC(=O)[C@H](CC(N)=O)NC(=O)[C@H]2C[C@H](N)CN2C(=O)[C@H](Cc2c[nH]c3ccccc23)NC(=O)[C@@H]2CNCCN2C(=O)[C@H](Cc2ccncc2)NC1=O [SEQ ID NO. 161] (cyclo([4Pal][Trp(7-Cl)][αMeS][Phe(4-COOH)]Y[Sar][Trp(βS-Me,7-OMe)][X1][Nle][4Pal][Pip(4-aza)]W[dPro(4S-NH2)]N)) |  | 0.09 nM
CCCCC[C@@H]1NC(=O)[C@@H]2CC[C@@H](C2)NC(=O)[C@H]([C@@H](C)c2c[nH]c3c(OC)cccc23)NC(=O)CN(C)C(=O)[C@H](Cc2ccc(C(N)=O)cc2)NC(=O)[C@H](Cc2ccc(C(N)=O)cc2)NC(=O)[C@](C)(CO)NC(=O)[C@H](Cc2c[nH]c3c(C#N)cccc23)NC(=O)[C@H](Cc2ccc(C(=O)O)cc2)NC(=O)[C@H](CC(N)=O)NC(=O)[C@H]2C[C@H](O)CN2C(=O)[C@H](Cc2c[nH]c3ccccc23)NC(=O)[C@H](CCCNC(N)=O)NC(=O)[C@H]([C@@H](C)c2ccncc2)NC1=O [SEQ ID NO. 110] (cyclo([Ahp(2)][4Pal(3S-Me)][Cit]W[dHyp]N[Phe(4-COOH)][Trp(7-CN)][αMeS][Phe(4-CONH2)][Phe(4-CONH2)][Sar][Trp(βS-Me,7-OMe)][X1])) |  | 0.14 nM
CCCC[C@@H]1NC(=O)[C@@H]2CC[C@@H](C2)NC(=O)[C@H]([C@@H](C)c2c[nH]c3c(OC)cccc23)NC(=O)CN(C)C(=O)[C@H](Cc2ccc(C(N)=O)cc2)NC(=O)[C@H](Cc2ccc(S(N)(=O)=O)cc2)NC(=O)[C@](C)(CO)NC(=O)[C@H](Cc2c[nH]c3c(C#N)cccc23)NC(=O)[C@H](Cc2ccc(C(=O)O)cc2)NC(=O)[C@H](CC(N)=O)NC(=O)[C@H]2C[C@H]([N+](C)(C)C)CN2C(=O)[C@H](Cc2cn(CC(=O)O)c3ccccc23)NC(=O)[C@@H]2CC[C@@H](O)CN2C(=O)[C@H](Cc2ccncc2)NC1=O [SEQ ID NO. 9] (cyclo([4Pal][Pip(5R-OH)][Trp(1-CH2COOH)][dPro(trans-4-NMe3+)]N[Phe(4-COOH)][Trp(7-CN)][αMeS][Phe(4-SO2NH2)][Phe(4-CONH2)][Sar][Trp(βS-Me,7-OMe)][X1][Nle])) |  | 0.05 nM
